Paper PMC10747430, “^99mTc-Labeled Cyclic Peptide Targeting PD-L1 as a Novel Nuclear Imaging Probe” (Pharmaceutics, 2023)

Key:
[1] = system: lesions and adenopathies with high metabolic activity; experiment: [18F]FDG PET/CT imaging in a patient; type: in vivo, human; parameters: key: Lesions and adenopathies positive for high metabolic activity were detected with [^18F]FDG (✓)
Text: A person (weight 60 kg; height 168 cm) diagnosed with advanced plantar malignant melanoma was enrolled in this study (Ethics Committee: Protocol No. 2023-MN02). The trial was approved based on the microdose concept and proof-of-concept studies. In addition, the ethical standards of the INCan Hospital based on the Declaration of Helsinki regarding human experimentation and the GMP certificate granted to ININ by the Mexican Ministry of Health were taken into account. The patient signed an informed consent form after receiving detailed information about the purpose of the study, which could help decide on treatment and monitor disease progression.
Table 2 provides a detailed analysis of the molecular imaging findings obtained in the [^99mTc]Tc-iPD-L1 SPECT/CT and [^18F]FDG/PET studies.

[2] = Serum protein binding; type: in vitro ADME; conditions: human serum (diluted 5x), 37 °C, size-exclusion radio-HPLC, n = 3
Description: (§1) The stability of [^99mTc]Tc-iPD-L1 and [^99mTc]Tc-WL12 was evaluated by diluting the samples in human serum (5x). The radiopharmaceuticals (n = 3) were heated at 37 °C and analyzed at 0.5, 3, and 24 h for radiochemical purity by size-exclusion radio-HPLC (ProteinPak 300SW, Waters Corporation, Milford, CT, USA).
(§2) The radioactivity from [^99mTc]Tc-iPD-L1 bound to serum proteins was 1.3 ± 0.8% at 30 min, 3.2 ± 1.3% at 3 h, and 7.6 ± 1.9% at 24 h. High radiochemical stability (>90% at 24 h) was also observed. In the case of [^99mTc]Tc-WL12, protein binding was 1.0 ± 0.4% at 30 min, 3.3 ± 0.9% at 3 h, and 6.0 ± 1.3% at 24 h, with a radiochemical purity of >90% at 24 h. Therefore, there was no significant difference […] in protein binding and serum stability between the radiotracers.

[3] = system: HCC827 lung cancer tumors; experiment: Biodistribution in mice bearing HCC827 tumors; type: in vivo, mouse; conditions: mice bearing HCC827 tumors
Description: All animal procedures were performed following the Institutional Animal Care and Use Committee requirements under an approved protocol (No. 09-2018-2022) and the Ethical Regulations for the Handling of Laboratory Animals (NOM-062-ZOO-1999). Male Nu/Nu (CINVESTAV, I.PN., Mexico City, Mexico) mice, 6–8 weeks of age, were maintained in an aseptic barrier environment. Mice were inoculated by subcutaneous injection of 1 × 10^6 HCC827 cells/0.1 mL PBS into the upper back. Injection sites were monitored periodically for tumor progression. On day ten after tumor cell inoculation, animals were injected with 18.5 MBq (50 µL) of [^99mTc]Tc-iPD-L1 or 18.5 MBq (50 µL) of [^99mTc]Tc-WL12 by tail vein injection. The animals were sacrificed at 1, 3, and 24 h (n = 3). Kidneys, lungs, heart, liver, spleen, pancreas, small intestine, stomach, muscle, and blood and tumor samples were dissected. Radioactivity was determined in a sodium iodide detector. The results were stated as % injected dose/g.
After 24 h, the activity in tumors was 3.21 ± 0.45 %ID/g ([^99mTc]Tc-WL12) and 5.65 ± 0.98 %ID/g ([^99mTc]Tc-iPD-L1). […] This behavior is related to the higher lipophilicity of [^99mTc]Tc-iPD-L1 compared to [^99mTc]Tc-WL12.

[4] = target: T1, human recombinant PD-L1 protein (Homo sapiens, UniProt Q9NZQ7); experiment: Radio-SDS-PAGE molecular recognition by PD-L1 protein; type: binding; conditions: radiopeptide (1 mg/mL) incubated with PD-L1 (200 µg/mL) 30 min at 37 °C; 15% SDS-PAGE, radio-TLC scan
T1 construct: purchased FineTest P6857
Description: SDS-PAGE gel electrophoresis was performed. Radioactivity distribution was determined using a radio-TLC scanner (Mini-Gita, 60–150 keV, BGO-Crystal, window 25 × 2 mm, thickness 5 mm, resolution optimized for Tc-99m; RayTest, Munich, Germany) to detect [^99mTc]Tc-iPD-L1 and [^99mTc]Tc-WL12 binding to PD-L1 protein.
Briefly, ^99mTc-labeled WL12 and iPD-L1 solutions (100 µL) (1 mg/mL peptide) were incubated with human recombinant PD-L1 protein (100 µL) (200 µg/mL; FineTest; Cat: P6857) (radiopeptide-PD-L1 interaction) or human integrin αVβ3 protein (100 µL) (negative control; 200 µg/mL) (Chemicom, Merck; Burlington, MA, USA) (radiopeptide-integrin interaction) for 30 min at 37 °C, after which the samples were diluted with Laemmli sample buffer (containing 10% SDS, Tris-Cl 125 mM, pH = 6.8, 12.5% glycerol and 0.005% bromophenol blue after dye) to give final protein concentrations of 25 µg/mL. […] Finally, the radioactivity distribution on the gels was scanned using a radio-TLC detector to determine the percentage of [^99mTc]Tc-iPD-L1 or [^99mTc]Tc-WL12 radioactivity associated with proteins.
In vitro-specific recognition of [^99mTc]Tc-iPD-L1 and [^99mTc]Tc-WL12 by the PD-L1 protein was performed using a combination of radio-TLC and SDS-PAGE (radio-SDS-PAGE). […] Therefore, the radioactivity associated with free peptides is in the front of the gel plate (around 60–70 mm). […]

[5] = Stability in human serum; type: in vitro ADME; conditions: human serum (diluted 5x), 37 °C, n = 3
Description: as §1, §2

T1 sequence (Q9NZQ7 19-290): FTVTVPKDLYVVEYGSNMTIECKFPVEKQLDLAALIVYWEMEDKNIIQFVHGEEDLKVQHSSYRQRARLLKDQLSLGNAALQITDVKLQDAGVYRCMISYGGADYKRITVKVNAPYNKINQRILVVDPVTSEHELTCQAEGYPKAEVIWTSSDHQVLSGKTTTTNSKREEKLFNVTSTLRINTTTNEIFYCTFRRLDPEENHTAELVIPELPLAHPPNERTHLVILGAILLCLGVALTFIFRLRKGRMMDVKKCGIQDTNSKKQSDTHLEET

With `OC[C@H]1OC(O)[C@H]([18F])[C@@H](O)[C@@H]1O` (some centres unmarked) [[^18F]FDG] the “[18F]FDG Uptake” value ([1]; patient with plantar malignant melanoma, PET/CT, Mediastinal adenopathies level 4R, 8 and 10L up to 12 mm) was “✓”, the “[18F]FDG Uptake” value ([1]; same patient, Adenopathies in the entire intramuscular tract of the left lower extremity up to 14 mm) was “✓” and the “[18F]FDG Uptake” value ([1]; same patient, Adenopathies of the common, internal, external, and obturator iliac chains up to 26 mm) was “✓”. For the same compound, the “[18F]FDG Uptake” value ([1]; same patient, Left femoral adenopathies of 12 mm) was “✓”, the “[18F]FDG Uptake” value ([1]; same patient, Left inguinal adenopathies forming clusters of 29 mm) was “✓” and the “[18F]FDG Uptake” value ([1]; same patient, Left popliteal hollow adenopathies up to 20 mm) was “✓”. The “[18F]FDG Uptake” value ([1]; same patient, Left retrocrural adenopathy of 9 mm) was “✓”, the “[18F]FDG Uptake” value ([1]; same patient, Liver, poorly defined hypodense images, the largest in segment 7) was “✓” and the “[18F]FDG Uptake” value ([1]; same patient, Retroperitoneal paraaortic and intercavoaortic adenopathies of 14 mm) was “✓”. For the same compound, the “[18F]FDG Uptake” value ([1]; same patient, exophytic lesion in the heel region of the left foot, 67 × 35 mm) was “✓”.

With `CC(C)C[C@@H]1NC(=O)[C@H](CC(C)C)NC(=O)[C@H](Cc2c[nH]c3ccccc23)NC(=O)[C@H](CO)NC(=O)[C@H](Cc2c[nH]c3ccccc23)NC(=O)[C@@H]2CCCN2C(=O)[C@H](CC(C)C)NC(=O)[C@H](Cc2c[nH]cn2)NC(=O)[C@@H]2CCCN2C(=O)[C@H](CC(N)=O)NC(=O)[C@H](C)NC(=O)[C@H](Cc2ccc(O)cc2)NC(=O)[C@H](CS)NC(=O)[C@H](CCCCNC(=O)c2ccc(NN)nc2)NC1=O` [[^99mTc]Tc-iPD-L1, metal not drawn] the “radioactivity bound to serum proteins at 30 min” value ([2]; 30 min) was 1.3 ± 0.8%, the “radioactivity bound to serum proteins at 3 h” value ([2]; 3 h) was 3.2 ± 1.3% and the “radioactivity bound to serum proteins at 24 h” value ([2]; 24 h) was 7.6 ± 1.9%. The “activity in blood, liver, and kidney compared to [99mTc]Tc-WL12” value [3] was “higher activity in blood, liver, and kidney”, the “radioactivity detected at the distance associated with the PD-L1 protein” value [4] was 30% and the “stability in human serum” value ([5]; 30 min, 3 h and 24 h, size-exclusion radio-HPLC) was “remained stable”. For the same compound, the remaining at 24 h ([5]; 24 h, size-exclusion radio-HPLC (ProteinPak 300SW), read-out: radiochemical stability / radiochemical purity in human serum at 24 h) was > 90%.
